Laboratory results from PubChem BioAssay (NCI).
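96-well plates; 48 h exposure; 5 concentrations. Endpoints by linear interpolation between flanking doses. Not reached: highest tested concentration assigned. GI50 marks 50% less growth. TGI is the concentration that stops growth completely.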

Assays:
Assay in all cases: NCI-60 cell line screen, 48 h
ACHN renal = tested on: ACHN renal
MOLT-4 leukemia = tested on: MOLT-4 leukemia
HCT-15 colon = tested on: HCT-15 colon
A498 renal = tested on: A498 renal
IGROV1 ovarian = tested on: IGROV1 ovarian
SK-MEL-28 melanoma = tested on: SK-MEL-28 melanoma
TK-10 renal = tested on: TK-10 renal
LOX IMVI melanoma = tested on: LOX IMVI melanoma
SK-OV-3 ovarian = tested on: SK-OV-3 ovarian
CAKI-1 renal = tested on: CAKI-1 renal
OVCAR-4 ovarian = tested on: OVCAR-4 ovarian
SK-MEL-5 melanoma = tested on: SK-MEL-5 melanoma
NCI/ADR-RES ovarian = tested on: NCI/ADR-RES ovarian
BT-549 breast = tested on: BT-549 breast
PC-3 prostate = tested on: PC-3 prostate
COLO 205 colon = tested on: COLO 205 colon
SF-295 CNS = tested on: SF-295 CNS
SR leukemia = tested on: SR leukemia
CCRF-CEM leukemia = tested on: CCRF-CEM leukemia
EKVX NSCLC = tested on: EKVX NSCLC
MDA-MB-231 breast = tested on: MDA-MB-231 breast
M14 melanoma = tested on: M14 melanoma
K-562 leukemia = tested on: K-562 leukemia
T-47D breast = tested on: T-47D breast
SNB-75 CNS = tested on: SNB-75 CNS
SN12C renal = tested on: SN12C renal
MDA-MB-435 = tested on: MDA-MB-435
HOP-62 NSCLC = tested on: HOP-62 NSCLC
UO-31 renal = tested on: UO-31 renal
MCF7 breast = tested on: MCF7 breast
NCI-H23 lung = tested on: NCI-H23 lung
SW-620 colon = tested on: SW-620 colon
OVCAR-3 ovarian = tested on: OVCAR-3 ovarian
OVCAR-8 ovarian = tested on: OVCAR-8 ovarian
HCC-2998 colon = tested on: HCC-2998 colon
NCI-H522 lung = tested on: NCI-H522 lung
HS 578T breast = tested on: HS 578T breast
RXF 393 renal = tested on: RXF 393 renal
HOP-92 NSCLC = tested on: HOP-92 NSCLC
DU-145 prostate = tested on: DU-145 prostate
HT29 colon = tested on: HT29 colon
KM12 colon = tested on: KM12 colon
HCT-116 colon = tested on: HCT-116 colon
OVCAR-5 ovarian = tested on: OVCAR-5 ovarian
SF-539 CNS = tested on: SF-539 CNS
U251 CNS = tested on: U251 CNS
HL-60(TB) leukemia = tested on: HL-60(TB) leukemia
NCI-H460 lung = tested on: NCI-H460 lung
A549 NSCLC = tested on: A549 NSCLC
SF-268 CNS = tested on: SF-268 CNS
SNB-19 CNS = tested on: SNB-19 CNS
UACC-257 melanoma = tested on: UACC-257 melanoma
786-0 renal = tested on: 786-0 renal
MALME-3M melanoma = tested on: MALME-3M melanoma
NCI-H226 lung = tested on: NCI-H226 lung
UACC-62 melanoma = tested on: UACC-62 melanoma
RPMI-8226 leukemia = tested on: RPMI-8226 leukemia

**Q.** What does the source list for `Cc1nn(-c2nc3ccccc3s2)c(C)c1Oc1ccccc1O`?
**A.** GI50 (ACHN renal): 10.1 µM; TGI (ACHN renal): 22.8 µM; GI50 (MOLT-4 leukemia): 2.56 µM; TGI (MOLT-4 leukemia): 12.5 µM; GI50 (HCT-15 colon): 0.762 µM; TGI (HCT-15 colon): 17.7 µM; GI50 (A498 renal): 11.4 µM; TGI (A498 renal): 23.6 µM; GI50 (IGROV1 ovarian): 12.6 µM; TGI (IGROV1 ovarian): 35.8 µM; GI50 (SK-MEL-28 melanoma): 10.2 µM; TGI (SK-MEL-28 melanoma): 21.8 µM; GI50 (TK-10 renal): 13.9 µM; TGI (TK-10 renal): 31.9 µM; GI50 (LOX IMVI melanoma): 2.87 µM; TGI (LOX IMVI melanoma): 16.9 µM; GI50 (SK-OV-3 ovarian): 7.57 µM; TGI (SK-OV-3 ovarian): 24.8 µM; GI50 (CAKI-1 renal): 10.9 µM; TGI (CAKI-1 renal): 22.9 µM; GI50 (OVCAR-4 ovarian): 10.3 µM; TGI (OVCAR-4 ovarian): 29.5 µM; GI50 (SK-MEL-5 melanoma): 1.3 µM; TGI (SK-MEL-5 melanoma): 15.3 µM; GI50 (NCI/ADR-RES ovarian): 3.6 µM; TGI (NCI/ADR-RES ovarian): 23.3 µM; GI50 (BT-549 breast): 12 µM; TGI (BT-549 breast): 25.5 µM; GI50 (PC-3 prostate): 6.58 µM; TGI (PC-3 prostate): > 100 µM; GI50 (COLO 205 colon): 15.7 µM; TGI (COLO 205 colon): 31.1 µM; GI50 (SF-295 CNS): 3.2 µM; TGI (SF-295 CNS): 17.2 µM; GI50 (SR leukemia): 0.536 µM; TGI (SR leukemia): 2.05 µM; GI50 (CCRF-CEM leukemia): 5.14 µM; TGI (CCRF-CEM leukemia): 47.8 µM; GI50 (EKVX NSCLC): 10.4 µM; TGI (EKVX NSCLC): 22.3 µM; GI50 (MDA-MB-231 breast): 10.8 µM; TGI (MDA-MB-231 breast): 25.9 µM; GI50 (M14 melanoma): 11.8 µM; TGI (M14 melanoma): 24.8 µM; GI50 (K-562 leukemia): 1.94 µM; TGI (K-562 leukemia): 19.4 µM; GI50 (T-47D breast): 8.63 µM; TGI (T-47D breast): 34.4 µM; GI50 (SNB-75 CNS): 1.73 µM; TGI (SNB-75 CNS): 24.3 µM; GI50 (SN12C renal): 6.92 µM; TGI (SN12C renal): 22 µM; GI50 (MDA-MB-435): 9.36 µM; TGI (MDA-MB-435): 21.3 µM; GI50 (HOP-62 NSCLC): 10.6 µM; TGI (HOP-62 NSCLC): 23.7 µM; GI50 (UO-31 renal): 4.44 µM; TGI (UO-31 renal): 18.6 µM; GI50 (MCF7 breast): 4.19 µM; TGI (MCF7 breast): 24.6 µM; GI50 (NCI-H23 lung): 12.3 µM; TGI (NCI-H23 lung): 26.3 µM; GI50 (SW-620 colon): 4.79 µM; TGI (SW-620 colon): 17.6 µM; GI50 (OVCAR-3 ovarian): 9.98 µM; TGI (OVCAR-3 ovarian): 21.5 µM; GI50 (OVCAR-8 ovarian): 8.04 µM; TGI (OVCAR-8 ovarian): 25.8 µM; GI50 (HCC-2998 colon): 5.73 µM; TGI (HCC-2998 colon): 18.9 µM; GI50 (NCI-H522 lung): 5.4 µM; TGI (NCI-H522 lung): 28.9 µM; GI50 (HS 578T breast): 10.3 µM; TGI (HS 578T breast): 25.2 µM; GI50 (RXF 393 renal): 3.09 µM; TGI (RXF 393 renal): 8.38 µM; GI50 (HOP-92 NSCLC): 0.162 µM; TGI (HOP-92 NSCLC): 16.6 µM; GI50 (DU-145 prostate): 7.17 µM; TGI (DU-145 prostate): 20.1 µM; GI50 (HT29 colon): 4.95 µM; TGI (HT29 colon): 20.3 µM; GI50 (KM12 colon): 6.99 µM; TGI (KM12 colon): 20.1 µM; GI50 (HCT-116 colon): 2.03 µM; TGI (HCT-116 colon): 15.5 µM; GI50 (OVCAR-5 ovarian): 12.5 µM; TGI (OVCAR-5 ovarian): 25.7 µM; GI50 (SF-539 CNS): 2.52 µM; TGI (SF-539 CNS): 20.1 µM; GI50 (U251 CNS): 1.39 µM; TGI (U251 CNS): 16.3 µM; GI50 (HL-60(TB) leukemia): 4.02 µM; TGI (HL-60(TB) leukemia): 18.1 µM; GI50 (NCI-H460 lung): 0.654 µM; TGI (NCI-H460 lung): 16.3 µM; GI50 (A549 NSCLC): 6.14 µM; TGI (A549 NSCLC): 22.5 µM; GI50 (SF-268 CNS): 5.31 µM; TGI (SF-268 CNS): 20.8 µM; GI50 (SNB-19 CNS): 6.77 µM; TGI (SNB-19 CNS): 20.3 µM; GI50 (UACC-257 melanoma): 3.64 µM; TGI (UACC-257 melanoma): 14.7 µM; GI50 (786-0 renal): 14.6 µM; TGI (786-0 renal): 27.7 µM; GI50 (MALME-3M melanoma): 12.6 µM; TGI (MALME-3M melanoma): 25.6 µM; GI50 (NCI-H226 lung): 9.07 µM; TGI (NCI-H226 lung): 26 µM; GI50 (UACC-62 melanoma): 2.91 µM; TGI (UACC-62 melanoma): 18.1 µM; GI50 (RPMI-8226 leukemia): 8.13 µM; TGI (RPMI-8226 leukemia): 34.8 µM
